Data from US7445931B2, “Compositions and methods for enrichment of neural stem cells using ceramide analogs” (Bresagen, Inc., priority 2002, dated 2008).

Tests used:
[1] = test system: Mouse neuroblastoma (F-11) cells; experiment: Induction of apoptosis in mouse neuroblastoma cells (Hoechst 33258 staining); type: cell-based; settings: 24 hours
Procedure: Mouse neuroblastoma (F-11) cells were incubated for 24 hours in 0.1, 0.2, 0.5, or 1.0 μM of laurylgallate (Aldrich). Apoptosis was determined by punctate staining of condensed nuclei with Hoechst 33258 (Sigma, […] medium for 30 minutes at room temperature).

differentiating ES cells = experiment: Apoptosis (TUNEL) in ceramide-depleted differentiating ES cells and its restoration by ceramide or analogs; type: cell-based, mouse; settings: for reduction of the degree of apoptosis: EB8 and NP2 stage, 25 μM FB1 or 50 nM myriocin for 48 hours
Procedure: Fumonisin B1 (FB1) or myriocin-treated (ceramide-depleted) differentiating ES cells were incubated with natural ceramide. To prepare the natural ceramide, 50 mg of EBs or NPs were resuspended in 500 μl of water, and after phase separation with 500 μl of CHCl3/CH3OH (1:1 by vol.) the neutral lipids were recovered from the lower phase. The neutral lipids were evaporated to dryness with a gentle stream of nitrogen and redissolved in 1 ml of CHCl3. The solution was applied to a silicic acid gel column (0.5 g) and fatty acids and cholesterol washed out with another 15 ml of CHCl3 (Dasgupta and Hogan, 2001 J. Lipid Res., 42:301-308). The ceramide fraction was then eluted with 20 ml of CHCl3/acetone (9:1, by vol.), evaporated to dryness, and the residue (approximately 6 nmoles of ceramide) dissolved in 20 μl of ethanol containing 2% dodecane (vol./vol.). Aliquots of 5 μl were mixed with 1 ml of medium, yielding a final concentration of 1.5 μM natural ceramide for induction of apoptosis (Ji et al., 1995 FEBS Lett., 358:211-214).
Differentiating ES cells at the EB8 cells were dissociated and grown for 24 hours on laminin/ornithin-coated cover slips (NP1 stage) in DMEM/F12 (50/50), supplemented with 1×N2 and 20 ng/ml FGF-2. Cells were incubated for 3 hours with 10 μM bromodeoxyuridine (BrdU) and the TUNEL assay or immunostainings performed after 5 hours of incubation. For immunostaining, cells were fixed with 4% paraformaldehyde in phosphate-buffered saline (PBS). Fixed cells were permeabilized with 0.2% Triton X-100 in PBS for 5 minutes at room temperature and immunostaining performed as described previously (Bieberich et al., 2001 J. Biol. Chem., 276:44396-44404). The nuclei were stained by treatment with 2 μg/ml Hoechst 33258 in PBS for 30 minutes at room temperature. Apoptotic nuclei were stained using the fluorescein FragEL TUNEL assay according to instructions of the manufacturer (Oncogene).
The degree of apoptosis in differentiating ES cultures was determined since it was previously proposed that ceramide elevation induces apoptosis in NPs (Bieberch et al., 2001 J. Biol. Chem., 276:44396-44404). […] Apoptosis was elevated at the EB8 stage ([…]), and was highest at the NP2 stage (35+/−5%). […] Apoptosis was restored by the addition of 30 μM N-acetyl sphingosine (C2-ceramide), 80 μM of the novel ceramide analog N-oleoyl serinol (S18), or 1 μM of natural ceramide that was extracted from differentiating ES cells.

[2] = test system: differentiating ES cells (NPs), PAR-4; experiment: S18-induced apoptosis (TUNEL) in NPs after PAR-4 antisense knockdown or PAR-4-RFP overexpression; type: cell-based, mouse
Procedure: For construction of PAR-4-REP cDNA, RT-PCR was performed with the oligonucleotide primer pair sense 5′atggcgaccggcggctatcg3′ (SEQ ID NO:14) and antisense 5′ctaccttgtcagctgcccaacaac3′(SEQ ID NO:15), using the first strand cDNA generated from embryoid bodies (EB8 stage) as template for the amplification reaction. The primers were endowed with the restriction enzyme cleaving sites Eco47III (sense) and SaII (antisense) for ligation of the PAR-4 specific amplification product into the multiple cloning site of HcRFP, a vector that encodes a far-red shifted variant of red fluorescent protein (Clontech). Differentiating ES cells at the NP1 stage were transfected with the PAR-4-RFP construct using the lipofectamine 2000 procedure according to the manufacturer's instructions (Invitrogen). The transfected cells were incubated in DMEM F12 (50/50), supplemented with 1×N2 and 20 ng/ml FGF-2, and the TUNEL assay or immunostainings were performed after 48 hours of incubation and NP formation. For depletion of ceramide, differentiating ES cell were incubated with 25 μM fumonisin B1 or 50 nM myriocin 48 hours prior to transfection with the PAR-4-RFP vector, and the inhibitor maintained in the medium throughout the post-transfection period. For induction of apoptosis, the novel ceramide analog S18 (40-100 μM), N-acetyl sphingosine (C2-ceramide, 10-30 μM), or natural ceramide isolated from EBs (0.5-1.5 μM) was added 48 hours after transfection with the PAR-4-RFP cDNA, and the degree of apoptosis quantified after 15-20 hours using TUNEL assays with paraformaldehyde-fixed cells as described above.
(§1) Endogenous expression of PAR-4 was suppressed by transfection of differentiating ES cells at the NP1 stage with 2 nmoles (per well in 24 wells plate) of the morpholino-based antisense oligonucleotide 5′cgatagccgccggtcgccatgttcc3′(SEQ ID NO:16) (see Guo et al., 1998, Nature Med., 4:957-962; Guo et al., 2001 Brain Res, 903:13-25) following the instructions of the manufacturer (GeneTools) in 0.5 ml of serum-free DMEM/F-12, 1XN2 supplemented with 20 ng/ml FGF-2. For induction of apoptosis, the novel ceramide analog S18 (40-100), N-acetyl sphingosine (C2 ceramide, […], or natural ceramide isolated from EBs (0.5-1.5 μM) was added 48 hours after transfection with the anti-PAR-4 morpholino, and the degree of apoptosis quantified after 15-20 hours using TUNEL assays with paraformaldehyde-fixed cells as described above.

[3] = test system: differentiating ES-J1 cells; experiment: Apoptosis (TUNEL staining, cell death) in differentiating mouse ES cells incubated with ceramide analogs; type: cell-based; settings: 15 hours with 75 μM S16 or S18, or 35 μM C2-ceramide
Procedure: In vitro neural differentiation of mouse ES cells (ES-J1, ES-D3) followed a serum deprivation protocol as described previously (Hancock, et al., 2000 Biochem. Biophys. Res. Commun., 271: 418-421). The differentiation stages are outlined in FIG. 2. Briefly, ES cells were grown on gamma-irradiated feeder fibroblasts for four days in Knockout DMEM/15% Knockout serum replacement, supplemented with ESGRO (LIF; Chemicon; Cat No. ESG1106) at a concentration of 10^3 units/ml medium. ES cells were then grown for another four days on gelatin-coated bacterial culture dishes without a fibroblast feeder layer, and were then grown for three days in Knockout DMEM/15% heat-inactivated ES qualified Fetal Bovine Serum, supplemented with 10^3 units LIF per ml of medium. Upon trypsinization, ES cells were transferred to bacterial culture dishes without gelatin, and embryoid body (EB) formation was induced for four days in Knockout DMEM/10% heat-inactivated ES qualified FBS without LIF (EB4 stage). On the fifth day, floating and loosely attached EBs were rinsed off and transferred to tissue culture dishes. The EBs were allowed to attach to the tissue culture dish surface by incubation for another 24 hours in Knockout DMEM with 10% heat-inactivated ES qualified fetal bovine serum. Neural differentiation due to serum deprivation was induced by cultivation of the EBs for three days in DME/12 (50/50), supplemented with 1×N2 (Invitrogen/Life Technologies; Cat No. 17502, dilution of 1:100) but without serum (EB8 stage). Serum-deprived EBs were then trypsinized, plated on poly-L-ornithine/laminin-coated tissue culture dishes and grown for four days in DMEM/F12 (50/50), supplemented with N2 and 10 ng/ml FGF-2, but without serum. This incubation period is referred to as neuroprogenitor (NP) stage due to commitment of neuroepithelial precursor cells to neuroprogenitor cells, and/or due to the selective expansion of neural progenitor cells in the FGF-2 containing serum-free medium. These cells have committed during the EB stages and were expanded during the NP stage. NPs grown for 48 hours upon replating of trypsinized EBs were referred to as the NP2 stage. On the fifth day of NP formation, the medium was changed to Neurobasal (Invitrogen/Life Technologies; Cat No. 21103-049), with 5% heat-inactivated FBS, and the cells were incubated for another seven days. During this time, NPs fully differentiate to glial cells and neurons. Cells cultured for 24 hours or 96 hours upon changing the medium were referred to as the D1 or D4 stage, respectively.
ES cells were cultured and differentiated to the EB4, EB8, NP2, or D4 stage following the protocol as described above. The ceramide analog S18 was dissolved in ethanol at a concentration of 100 mM and then added to the cells at a final concentration of 75 μM in medium. The cells at the EB8 stage were incubated for 48 hours in the presence of the ceramide analog and were then transplanted into mouse brains.
Differentiating ES cells were grown on cover slips and fixed with 4% paraformaldehyde in phosphate-buffered saline (PBS). Fixed cells were permeabilized with 0.5% Triton X-100 in PBS for 5 minutes at room temperature and unspecific binding sites were saturated by incubation with 3% ovalbumin in PBS for 1 hour at 37° C. The cover slips were then incubated with 5 μg/ml primary antibody (anti-ceramide clone 15B4 mouse IgM, Alexis; anti-PAR-4 rabbit IgG, Santa Cruz; anti-PCNA rabbit IgG, Santa Cruz; anti-nestin clone 401 rat IgG, BD Pharmingen) in 0.1% ovalbumin/PBS, followed by incubation with the appropriate fluorescence-labeled secondary antibody (5 μg/ml Alexa 546 conjugated anti-mouse IgG, Molecular Probes; Alexa 488 conjugated anti-rabbit IgG, Molecular Probes, Cy3 conjugated anti-mouse IgM, Jackson) for 2 hours at 37° C. The nuclei were stained by treatment with 2 μg/ml Hoechst 33258 in PBS for 30 minutes at room temperature. […]

PAR-4 = PAR-4 immunoblot after transfection with PAR-4 antisense morpholino; type: cell-based, mouse; settings: NPs transfected with 2 nmoles morpholino
Procedure: as §1
The amount of protein was determined following a modified Folin phenol reagent (Lowry) assay essentially as described in Wang and Smith (1975 Anal. Biochem., 63:414-417). Protein extracted with detergent was precipitated according to the Wessel and Fluegge method (Wessel and Flugge, 1984 Anal. Biochem, 138:141-143). SDS-PAGE was performed using the Laemmli method followed by immunoblotting (Laemmri, 1970 Nature, 227:680-685).

Compound: CCCCCCCCCCCCOC(=O)c1cc(O)c(O)c(O)c1 [laurylgallate, n-dodecyl ester of 3,4,5-trihydroxybenzoic acid]
- cells undergoing apoptosis ([1]; 0.5 μM laurylgallate): 50%
- cells undergone apoptosis ([1]; 1.0 μM laurylgallate): 100%

Compound: CCCC[C@@H](C)[C@@H](OC(=O)C[C@@H](CC(=O)O)C(=O)O)[C@H](C[C@@H](C)C[C@H](O)CCCC[C@@H](O)C[C@H](O)[C@H](C)N)OC(=O)C[C@@H](CC(=O)O)C(=O)O [FB1, Fumonisin B1, reference compound]
- reduction of the degree of apoptosis (differentiating ES cells): about 50%

Compound: LEHD-CHO [reference compound]
- effect of pre-incubation on apoptosis inducible with S18 or natural ceramide ([2]; differentiating ES cells, caspase 9 inhibitor pre-incubation): suppressed apoptosis

Compound: CCCCCCCCCCCCCCCC(=O)NC(CO)CO [S16, N-(2-hydroxy-1-(hydroxymethyl)ethyl)-palmitoylamide]
- number of TUNEL stained cells ([3]; EB8 stage): 45±10%
- number of TUNEL stained cells ([3]; NP2 stage): 70±10%

Compound: CCCCCCC(=O)CCCCCC/C=C/C[C@@H](O)[C@H](O)[C@@](N)(CO)C(=O)O [myriocin, reference compound]
- reduction of the degree of apoptosis (differentiating ES cells): about 50%

Compound: CCCCCCCCCCCCC/C=C/[C@@H](O)[C@H](CO)NC(C)=O [C2-ceramide, N-acetyl sphingosine, reference compound]
- dependence of apoptosis on PAR-4 expression (differentiating ES cells; FB1-treated cells at the NP2 stage): only seen in cells that expressed PAR-4
- restoration of apoptosis in FB1-treated cells (differentiating ES cells; NP2 stage, 30 μM C2-ceramide, 80 μM S18, or 1 μM natural ceramide): restored
- number of TUNEL stained cells ([3]; EB8 stage): 45±10%
- number of TUNEL stained cells ([3]; NP2 stage): 70±10%

Compound: PAR-4 specific antisense morpholino: morpholino-based antisense oligonucleotide 5′cgatagccgccggtcgccatgttcc3′ (SEQ ID NO:16) (antisense CGATAGCCGCCGGTCGCCATGTTCC; all phosphorodiamidate morpholino (PMO)) [reference compound]
- S18-induced apoptosis ([2]; NPs transfected with PAR-4 specific antisense morpholino, then S18): less than 30%
- expression level of PAR-4 relative to untransfected cells (PAR-4): about 25%
